This is an account of results in patent publication US12351561B2, “Crystalline (2S,4R)-5-(5'-chloro-2'-fluoro-[1,1'-biphenyl]-4-yl)-2-(ethoxymethyl)-4-(3-hydroxyisoxazole-5-carboxamido)-2-methylpentanoic acid and uses thereof” (THERAVANCE BIOPHARMA R&D IP, LLC, priority 2016, dated 2025).

The nature of data set [1]: Assay 3.2: PK profile, oral bioavailability and renal excretion in human (SAD, 14C i.v. microtracer). The following applies: human, SAD clinical trial, confirmed by intravenous microtracer. The format is in vivo. As for the experimental part:
A Phase 1 single-ascending dose (SAD) clinical trial of Compound I′ (Form I), which converts to or dissolves to provide its soluble form Compound I in the body, was conducted in order to assess neprilysin inhibition for the treatment of a range of cardiovascular and renal diseases, including, e.g., chronic kidney disease, diabetic nephropathy, acute and chronic heart failure, heart failure with reduced ejection fraction, heart failure with preserved ejection fraction, post-myocardial infarction asymptomatic left ventricular dysfunction (post-MI asymptomatic LVD), subacute heart failure and resistant and isolated systolic hypertension. Safety and tolerability, pharmacokinetic (support for QD/BID dosing and non-renal excretion), pharmacodynamic (test for target engagement biomarkers cGMP and ANP), food effect, and absolute oral bioavailability and renal elimination using a ^14C intravenous microtracer, inter alia, were tested.
The Phase 1 study was a double-blind, randomized placebo-controlled single ascending dose study in healthy male and female volunteers randomized in a 4:1 ratio. The study enrolled 56 healthy volunteers over multiple weeks for the ascending-dose portion, which included cohorts (n=10/cohort of 8 active and 2 placebo) administered single ascending doses of 50 mg, 100 mg, 200 mg, 400 mg and 600 mg. A sixth cohort (n=6) was administered i.v. microtracer and oral doses of 10 μg and 100 mg, respectively.

Data set [2] has as its target T1, NEP (Homo sapiens, UniProt P08473).
T1 construct: from tissue; host or cells: healthy human volunteers (in vivo)
In words: Assay 4.1: NEP activity in human (cGMP), multiple-ascending dose study. The format is in vivo. Particulars: once-daily dose, trough (0 h) up to 24 h. The procedure:
The Phase 1 study was a double-blind, randomized placebo-controlled multiple ascending dose study in healthy male and female volunteers randomized in a 4:1 ratio. The study enrolled 50 healthy adult (19-55 years old) and elderly (65-80 years old) volunteers over multiple weeks for the ascending-dose portion, which included cohorts (n=10/cohort of 8 active and 2 placebo) administered (1) ascending doses of 50 mg, 100 mg, and 200 mg, (2) a dose of 10 mg studied in parallel with 200 mg for PK/PK, and (3) a dose of 100 mg for one elderly cohort. […] Additionally, renal elimination of Compound I was neglible after multiple dosing, e.g., <1% was observed on Day 1 and Day 14 for all subjects.
Part of the MAD clinical studies was to determine the mechanism/duration of action of Compound I after dosing in humans.

Data set [3] can be described thus: Stability study of crystalline form (25° C./60% RH and accelerated 40° C./75% RH). The format is physicochemical. As for the experimental part: One challenge in pharmaceutical drug development relates to discovering a stable, crystalline form of a drug having a reasonably high melting point. One challenge of the present invention was that small crystals of the free acid of Compound I were difficult to obtain with the favorable physical properties mentioned above. Once achieved, the small crystals melted around 216° C. and an accelerated stability study of Compound I′ was conducted at the temperatures and % relative humidity (RH) reported below.

Data set [4] can be described thus: Dynamic moisture sorption (DMS) assessment. The format is physicochemical. The procedure: In one embodiment, crystalline form I′ is characterized by the DMS isotherm in FIG. 4. […] The total moisture gain observed is less than 0.02% by weight when exposed to 5-90% relative humidity. No significant hysteresis is found between two consecutive sorption-desorption cycles. […] The crystalline form I′ remains non-hygroscopic and therefore may be characterized as anhydrous, non-hygroscopic or both.
DMS measurements were performed using a VTI atmospheric microbalance, SGA-100 system (VTI Corp., Hialeah, FL 33016). A weighed sample was used and the humidity was lowest possible value (close to 0% relative humidity) at the start of the analysis. The DMS analysis consisted of a scan rate of 5% relative humidity/step over the full humidity range of 5-90%. The DMS run was performed isothermally at 25° C.

In data set [5] the target is human neprilysin (NEP) (Homo sapiens, UniProt P08473). The data set is described as follows: in vitro human neprilysin inhibitor activity (pKi). The format is biochemical. The text has this:
One measure of the ability of a compound to inhibit NEP activity is the inhibition constant (pKi). The pKi value is the negative logarithm to base 10 of the dissociation constant (Ki), which is typically reported in molar units. The compound of the invention has a pKi at NEP≥9.0.
The in vitro-to-in vivo extrapolation of drug behavior in a subject continues to improve (see, e.g., Chiba et al., AAPS J., 2009 June; 11 (2): 262-276). In the present invention, in vitro human neprilysin inhibitor activity was assessed in order to determine neprilysin inhibitory activity of Compound I and crystalline form I′. A threshold of pKi>9.0 was met. However, additional in vivo experiments were further performed in order to more accurately predict the behavior of Compound I and crystalline form I′ in a subject.

For data set [6] the following is noted: healthy subjects; cited from earlier work.

Chain of human neprilysin (NEP) (P08473 whole entry): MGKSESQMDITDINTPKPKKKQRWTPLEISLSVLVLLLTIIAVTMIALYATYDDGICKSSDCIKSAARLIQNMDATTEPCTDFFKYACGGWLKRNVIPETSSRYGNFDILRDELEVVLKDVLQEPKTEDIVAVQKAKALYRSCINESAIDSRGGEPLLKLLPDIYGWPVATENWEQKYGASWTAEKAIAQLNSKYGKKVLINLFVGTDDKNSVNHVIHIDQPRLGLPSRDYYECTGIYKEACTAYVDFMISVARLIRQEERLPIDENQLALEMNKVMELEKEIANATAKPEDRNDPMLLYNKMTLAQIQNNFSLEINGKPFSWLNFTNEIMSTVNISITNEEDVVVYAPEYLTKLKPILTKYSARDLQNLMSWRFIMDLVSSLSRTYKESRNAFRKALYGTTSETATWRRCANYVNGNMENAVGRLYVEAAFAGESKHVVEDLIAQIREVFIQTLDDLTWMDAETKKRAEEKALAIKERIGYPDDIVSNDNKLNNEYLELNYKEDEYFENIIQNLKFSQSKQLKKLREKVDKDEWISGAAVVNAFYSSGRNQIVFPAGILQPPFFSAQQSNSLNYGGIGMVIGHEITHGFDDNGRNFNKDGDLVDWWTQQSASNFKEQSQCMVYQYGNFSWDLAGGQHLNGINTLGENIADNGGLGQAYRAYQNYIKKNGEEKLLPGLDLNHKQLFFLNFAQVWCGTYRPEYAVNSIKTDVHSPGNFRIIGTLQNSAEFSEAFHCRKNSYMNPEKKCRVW
T1 sequence (P08473 whole entry): as above

The Ki is a measure of affinity in units of concentration, obtained from inhibition or displacement. For `CCOC[C@](C)(C[C@@H](Cc1ccc(-c2cc(Cl)ccc2F)cc1)NC(=O)c1cc(O)no1)C(=O)O` [Compound I′, (2S,4R)-5-(5′-chloro-2′-fluoro-[1,1′-biphenyl]-4-yl)-2-(ethoxymethyl)-4-(3-hydroxyisoxazole-5-carboxamido)-2-methylpentanoic acid], in data set [1], the “renal elimination (of total administered dose)” value is listed as “less than 1%”. For the same compound, in data set [2], the “target engagement (plasma cGMP) on Day 14” value is “target engagement of all doses at trough (0 h) as well as all doses measured up to 24 h”. Further, the “time for which the crystalline form remains stable” value in data set [3] (25° C., 60% RH) is recorded as “at least 18 months”; in data set [3] (measured by accelerated conditions of 40° C., 75% RH (6 months taken as equivalent to 2 years at 25° C., 60% RH)) it was “at least 2 years”. Further, the Assay in data set [3] (25° C., 60% RH, 0 months) is given as 98.6 % (w/w); in data set [3] (25° C., 60% RH, 3 months) it was 98.5 % (w/w); in data set [3] (25° C., 60% RH, 6 months), 99.2 % (w/w); in data set [3] (25° C., 60% RH, 9 months), 99.0 % (w/w); in data set [3] (25° C., 60% RH, 12 months), 99.2 % (w/w); in data set [3] (25° C., 60% RH, 18 months) it was 99.1 % (w/w). Moreover, the Assay is on record as 98.6 % (w/w) in data set [3] (40° C., 75% RH (accelerated), 0 months); 98.5 % (w/w) in data set [3] (40° C., 75% RH (accelerated), 1 month); 98.6 % (w/w) in data set [3] (40° C., 75% RH (accelerated), 3 months); 99.0 % (w/w) in data set [3] (40° C., 75% RH (accelerated), 6 months). The “Water Content” value was “<LOQ” in data set [3] (25° C., 60% RH, 0 months, LOQ = 0.2%); “<LOQ” in data set [3] (25° C., 60% RH, 6 months, LOQ = 0.19%); “<LOQ” in data set [3] (25° C., 60% RH, 12 months, LOQ = 0.19%); “<LOQ” in data set [3] (40° C., 75% RH (accelerated), 0 months, LOQ = 0.2%); “<LOQ” in data set [3] (40° C., 75% RH (accelerated), 3 months, LOQ = 0.22%); “<LOQ” in data set [3] (40° C., 75% RH (accelerated), 6 months, LOQ = 0.19%). The water detected result in data set [3] (at 12-months) was “no quantifiable amount of water is detected”. In addition, the “hygroscopicity (DMS isotherm)” value in data set [4] (5-90% relative humidity, two sorption-desorption cycles) is “non-hygroscopic solid”. For the same compound, in data set [4] (exposed to 5-90% relative humidity, 25° C.), the total moisture gain result was “less than 0.02 % by weight”. In data set [5], this compound had an inhibition constant (Ki) of no more than 1 nM.
Consider `CCOC(=O)[C@H](C)C[C@@H](Cc1ccc(-c2ccccc2)cc1)NC(=O)CCC(=O)O` [sacubitril], for which the renal elimination in data set [6] is listed as 60%.
